# Read-outs that look alike come from different tables or passages of the source.
# Assays:
# [1] = target: T1, hGPR65 (Homo sapiens, UniProt Q8IYL9); assay: cAMP detection in HeLa expression cell line, hGPR65; type: cell-based; conditions: for Emax: HeLa, read-out: hGPR Max Activity %; for cAMP production relative to BRD2813, hGPR65: pH 7.2
# T1 construct: expressed in transfected cells; host or cells: HeLa (ATCC CCL-2), lentiviral transduction, pLX317
# Protocol: (§1) HeLa stable expression cell lines were produced by lentiviral transduction. Briefly, lentiviral plasmids for each GPCR with a C-terminal V5 Tag ([…]) were made in a pLX317 backbone using competent Escherichia coli (New England Biolabs, C3050H). Lenti-X 293 T (Takara, 632810) cells were transfected with the lentiviral plasmids to produce virus. Low-passage HeLa cells (American Type Culture Collection, CCL-2) were then transduced with lentivirus. After 48 hours, HeLa cells were cultured under selection with puromycin (3 μg/ml) and allowed to recover and expand before storing stocks in liquid nitrogen.
# (§2) cAMP was measured in cells using the Lance Ultra cAMP Kit. HeLa cells were cultured under puromycin (3 μg/ml) selection. One day before the experiment, cells were seeded in T75 flasks and allowed to adhere overnight. On the day of the experiment, cells were washed twice with Dulbecco’s PBS and lifted using prewarmed 1× versene solution (Gibco, 15040066). Cells were counted in HBSS (Gibco, 14025092) and then resuspended in stimulation buffer prepared according to the manufacturer’s instructions and adjusted to pH 7.2 using 1 M sodium hydroxide. Cells were added to the plate at a density of 1500 cells per well in white opaque 384-well assay ready microplates containing 100 nl of 10 mM compound in DMSO. Cells were stimulated for 30 min at RT, then lysed and incubated with detection reagents for 1 hour in the dark at RT. Plates were read on BMG Labtech PHERAstar FSX (excitation, 337 nm; emission, 620 and 665 nm). Data analysis was performed using GraphPad Prism.
# [2] = target: T2, mGPR65 (Mus musculus, UniProt Q61038); assay: cAMP detection in HeLa expression cell line, mGPR65; type: cell-based; conditions: for Emax: HeLa, read-out: mGPR Max Activity %; for cAMP production relative to BRD2813, mGPR65: pH 7.2
# T2 construct: expressed in transfected cells; host or cells: HeLa (ATCC CCL-2), lentiviral transduction, pLX317
# T2 sequence (Q61038 whole entry): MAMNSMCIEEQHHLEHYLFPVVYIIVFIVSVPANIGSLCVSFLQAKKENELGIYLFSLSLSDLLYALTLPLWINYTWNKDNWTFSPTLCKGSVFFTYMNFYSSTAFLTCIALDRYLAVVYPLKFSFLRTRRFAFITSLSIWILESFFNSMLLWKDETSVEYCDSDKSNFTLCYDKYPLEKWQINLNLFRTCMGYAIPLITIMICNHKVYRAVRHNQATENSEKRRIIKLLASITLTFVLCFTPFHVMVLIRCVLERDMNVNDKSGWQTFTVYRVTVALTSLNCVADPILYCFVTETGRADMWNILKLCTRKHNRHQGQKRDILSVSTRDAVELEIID
# Protocol: as §1, §2
# [3] = 1st hGPR column pair, NA = no activity, read-out: hGPR EC50
# [4] = 2nd hGPR column pair, NA = no activity, read-out: hGPR EC50
# [5] = 1st hGPR column pair, relative to 100uM forskolin (100%) and DMSO (0%), NA = no activity
# [6] = 2nd hGPR column pair, relative to 100uM forskolin (100%) and DMSO (0%), NA = no activity
# [7] = 1st mGPR column pair, NA = no activity, read-out: mGPR EC50
# [8] = 2nd mGPR column pair, NA = no activity, read-out: mGPR EC50
# [9] = 2nd mGPR column pair, relative to 100uM forskolin (100%) and DMSO (0%), NA = no activity
# [10] = relative to 100uM forskolin (100%) and DMSO (0%), NA = no activity
# [11] = hGPR EC50 (uM), NA = no activity
# [12] = mGPR EC50 (uM), 2nd mGPR column pair, NA = no activity
# [13] = mGPR EC50 (uM), NA = no activity
# [14] = first pair, relative to 100uM forskolin (100%) and DMSO (0%)
# T1 sequence (Q8IYL9 whole entry): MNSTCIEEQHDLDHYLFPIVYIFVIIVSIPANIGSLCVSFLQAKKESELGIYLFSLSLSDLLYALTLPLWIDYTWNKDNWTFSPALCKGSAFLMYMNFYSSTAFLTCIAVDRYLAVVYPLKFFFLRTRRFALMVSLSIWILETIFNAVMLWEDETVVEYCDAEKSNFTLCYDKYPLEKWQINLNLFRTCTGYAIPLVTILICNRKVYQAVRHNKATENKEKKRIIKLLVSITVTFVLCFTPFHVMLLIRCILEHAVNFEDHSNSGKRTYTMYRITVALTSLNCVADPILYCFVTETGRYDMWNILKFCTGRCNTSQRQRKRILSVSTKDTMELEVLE
Compound,"EC50 [1, 3]","Emax [1, 5]","Emax [1, 6]","EC50 [2, 7]","EC50 [2, 8]","Emax [2, 9]","Emax [2, 10]",other results
Cc1ccc(NC(=O)c2cnn3c(O)cc(-c4cnc(N5CCOCC5)c(Cl)c4)nc23)cc1 [BRD5065],2.39 µM,49.7%,39.5%,0.513 µM,1.16 µM,51.8%,56.5%,"EC50 [1, 4]: 1.87 µM"
Cc1ccc(NC(=O)c2cnn3c(O)cc(-c4ccc(N5CCN(C)CC5)c(Cl)c4)nc23)cc1 [BRD5068],1.76 µM,53.1%,36.9%,0.613 µM,1.04 µM,66.5%,71%,"EC50 [1, 4]: 2.82 µM"
CC(C)OCc1ccc(-c2cc(O)n3ncc(C(=O)Nc4ccccn4)c3n2)cc1 [BRD5074],7.02 µM,84.1%,75.9%,9.32 µM,–,–,78%,"EC50 [1, 4]: 8.96 µM"
Cc1cnc(NC(=O)c2cnn3c(O)cc(-c4ccc(COC(C)C)cc4)nc23)nc1 [BRD5076],2 µM,72.4%,69.9%,1.14 µM,1.8 µM,56.3%,59.9%,"EC50 [1, 4]: 1.64 µM"
Cc1ccc(NC(=O)c2cnn3c(O)cc(-c4ccc(C(=O)NC(C)C)cc4)nc23)cc1 [BRD5085],2.75 µM,46.6%,31.2%,0.441 µM,4.17 µM,32.7%,98.4%,"EC50 [1, 4]: 2.82 µM"
COCc1ccc(-c2cc(O)n3ncc(C(=O)Nc4ccc(OC)cc4)c3n2)cc1 [BRD5326],–,83%,82.7%,–,–,55.6%,56.3%,"EC50 [1, 11]: 1.26 µM; EC50 ([1]; hGPR EC50, NA = no activity): 0.903 µM; cAMP production relative to BRD2813, hGPR65 [1]: little effect on cAMP production; EC50 [2, 12]: 1.26 µM; EC50 [2, 13]: 1.27 µM; cAMP production relative to BRD2813, mGPR65 [2]: slight improvement in mGPR65 activity"
COc1cccc(Cc2cc(O)n3ncc(C(=O)Nc4ccc(C)cc4)c3n2)c1 [BRD5386],–,–,–,2.01 µM,2.17 µM,16.4%,39.5%,"EC50 ([1]; NA = no activity, read-out: hGPR EC50): 1.96 µM; hGPR Max Activity [1, 10]: 4.575%; EC50 ([2]; 3rd mGPR column pair, NA = no activity, read-out: mGPR EC50): 0.425 µM; mGPR Max Activity [2, 10]: 21.71%"
Cc1[nH]c2ccccc2c1Cc1cc(O)n2ncc(C(=O)Nc3ccccc3)c2n1 [BRD5828],–,–,–,0.649 µM,0.785 µM,18.4%,25.8%,–
Cc1ccc(NC(=O)c2cnn3c(O)cc(CCc4c(C)n[nH]c4C)nc23)cc1 [BRD5908],–,–,–,33 µM,–,–,22.1%,–
Cc1ccc(NC(=O)c2cnn3c(O)cc(-c4ccc(COC(C)C)cc4)nc23)cc1 [BRD5928],–,82.5%,80%,–,–,54.1%,61.1%,"EC50 [1, 11]: 0.271 µM; EC50 ([1]; hGPR EC50, NA = no activity): 0.629 µM; cAMP production relative to BRD2813, hGPR65 [1]: induced high hGPR65 activity; EC50 [2, 12]: 0.494 µM; EC50 [2, 13]: 0.635 µM; cAMP production relative to BRD2813, mGPR65 [2]: substantially increasing cAMP production"
COc1ccc(-c2ccn3ncc(C(=O)Nc4ccc(C)cc4)c3n2)cc1 [BRD6737],0.0844 µM,7.95%,–,–,–,–,–,–
COc1cccc(Cc2cc(O)n3ncc(C(=O)Nc4ccccc4)c3n2)c1 [BRD7897],–,–,–,6.48 µM,–,–,~22.7%,–
Cc1ccc(NC(=O)c2cnn3c(O)cc(-c4ccc(-c5ccc(C(C)C)cc5)cc4)nc23)cc1 [BRD7984],–,–,–,–,–,–,–,"Emax [2, 14]: 12.4%; EC50 ([2]; SAR cAMP assay, first EC50/Max pair, read-out: mGPR EC50): 0.11 µM"
Cc1ccc(NC(=O)c2cnn3c(O)cc(-c4ccc(N5CCCN(C)CC5)cc4)nc23)cc1 [BRD8425],–,–,–,–,–,–,–,"Emax [2, 14]: 65.4%"
Cc1ccc(NC(=O)c2cnn3c(O)cc(CCc4c(C)noc4C)nc23)cc1 [BRD8568],3.06 µM,3.77%,–,–,–,–,–,–
CCN1CC(c2cc(O)n3ncc(C(=O)Nc4ccc(Cl)cc4)c3n2)CC1=O (stereo not shown) [BRD8856],–,–,–,0.662 µM,–,–,10.9%,–
CCOC(=O)c1cnn2c(O)cc(C)nc12 [BRD9804],77.6 µM,5.41%,–,–,–,–,–,–

# From publication PMC11259170, “Small-molecule probe for IBD risk variant GPR65 I231L alters cytokine signaling networks through positive allosteric modulation” (Science Advances, 2024)
